For test [1], the system named is carragennan induced pleurisy. As to the kind of experiment: Carragennan Induced Pleurisy Test (CIP). It counts as in vivo, Sprague-Dawley rats. The settings on record: Rattus norvegicus; rats, oral 10 mg/kg, 30 min before carrageenan; prostaglandin in pleural lavage at 4 h. Here is the method:
(§1) EIA Determination of Prostaglandins
(§2) EIA reagents for prostaglandin determination were purchased from Perspective Diagnostics, Cambridge, Mass. PGE2 levels in lavage fluids were determined after the samples were dried under nitrogen and reconstituted with assay buffer. PGE2 levels in enzyme assays or cell culture media were measured against standards prepared in the same milieu. The immunoassays were conducted as recommended by the manufacturer. The EIA was conducted in 96 well microtiter plates (Nunc Roskilde, Denmark) and optical density measured using a microplate reader (Vmax, Molecular Devices Corp., Menlo Park, Calif.).
Carragennan Induced Pleurisy Test (CIP)
Four hours after carrageenan injection, the animals were euthanized and their pleural cavities lavaged with ice cold saline. […] Prostaglandin levels in the methanol lavage fluid were then determined by EIA.

The target of test [2] is T1, recombinant human PGHS-1 (COX-1) (Homo sapiens, UniProt P23219).
T1 construct: made in house; host or cells: baculovirus/Sf9 insect cells (microsomes)
Nature of the test: Recombinant human PGHS-1 enzyme assay (PGE2 production by EIA). Particulars: 100 uM compound; 60 min preincubation; 10 uM arachidonic acid; read-out: COX-1 (% inhib. @ 100 uM). It counts as biochemical. How it is done:
Recombinant Human PGHS-l and -2 Enzyme Assays:
The reaction was allowed to run for 2.5 minutes at room temperature prior to quenching with HCl and neutralization with NaOH. PGE2 production in the presence and absence of the drug was determined by Enzyme ImmunoAssay ("EIA") analysis as described below.
as §1, §2

The target of test [3] is T2, recombinant human PGHS-2 (COX-2) (Homo sapiens, UniProt P35354).
T2 construct: made in house; host or cells: baculovirus/Sf9 insect cells (microsomes)
T2 sequence (P35354 18-604): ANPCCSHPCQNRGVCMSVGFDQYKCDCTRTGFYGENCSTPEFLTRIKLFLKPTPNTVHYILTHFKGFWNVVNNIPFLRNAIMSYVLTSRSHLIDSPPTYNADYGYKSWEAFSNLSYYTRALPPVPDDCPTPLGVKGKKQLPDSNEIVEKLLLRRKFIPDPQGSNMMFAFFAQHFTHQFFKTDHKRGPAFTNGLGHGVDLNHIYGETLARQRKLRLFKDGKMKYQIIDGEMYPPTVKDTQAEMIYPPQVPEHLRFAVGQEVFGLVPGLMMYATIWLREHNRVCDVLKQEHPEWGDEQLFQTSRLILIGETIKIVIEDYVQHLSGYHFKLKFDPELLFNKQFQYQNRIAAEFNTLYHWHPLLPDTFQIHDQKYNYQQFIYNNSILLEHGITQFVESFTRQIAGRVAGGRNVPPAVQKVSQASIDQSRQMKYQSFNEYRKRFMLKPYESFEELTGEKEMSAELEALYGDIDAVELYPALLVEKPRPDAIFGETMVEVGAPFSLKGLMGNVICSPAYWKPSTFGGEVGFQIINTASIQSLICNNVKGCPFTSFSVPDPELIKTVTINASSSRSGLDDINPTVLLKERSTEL
As to the kind of experiment: Recombinant human PGHS-2 enzyme assay (PGE2 production by EIA). Format: biochemical. Particulars: 60 min preincubation, 10 uM arachidonic acid; for inhibition at 0.1 µM: 100 nM compound. Here is the method: Recombinant Human PGHS-l and -2 Enzyme Assays: A compound of the invention was dissolved in DMSO (3.3%v/v) and preincubated with microsomes from recombinant human PGHS-1 and-2 expressed in the baculovirus/Sf9 cell system (Gierse, J. […] The reaction was allowed to run for 2.5 minutes at room temperature prior to quenching with HCl and neutralization with NaOH. PGE2 production in the presence and absence of the drug was determined by Enzyme ImmunoAssay ("EIA") analysis as described below. EIA Determination of Prostaglandins EIA reagents for prostaglandin determination were purchased from Perspective Diagnostics, Cambridge, Mass. PGE2 levels in lavage fluids were determined after the samples were dried under nitrogen and reconstituted with assay buffer. PGE2 levels in enzyme assays or cell culture media were measured against standards prepared in the same milieu. The immunoassays were conducted as recommended by the manufacturer. The EIA was conducted in 96 well microtiter plates (Nunc Roskilde, Denmark) and optical density measured using a microplate reader (Vmax, Molecular Devices Corp., Menlo Park, Calif.).

The record followed here is patent US5811425A, “Heterocyclic compounds as COX-2 inhibitors” (Abbott Laboratories, priority 1997, dated 1998).

In general, inhibition in vivo refers to the change of the read-out against control, counted positive when it falls. For orientation: IC50 means the midpoint of a concentration-inhibition curve.

Structures can show the parent of a compound that is named as a salt.

T1 sequence (P23219 24-599): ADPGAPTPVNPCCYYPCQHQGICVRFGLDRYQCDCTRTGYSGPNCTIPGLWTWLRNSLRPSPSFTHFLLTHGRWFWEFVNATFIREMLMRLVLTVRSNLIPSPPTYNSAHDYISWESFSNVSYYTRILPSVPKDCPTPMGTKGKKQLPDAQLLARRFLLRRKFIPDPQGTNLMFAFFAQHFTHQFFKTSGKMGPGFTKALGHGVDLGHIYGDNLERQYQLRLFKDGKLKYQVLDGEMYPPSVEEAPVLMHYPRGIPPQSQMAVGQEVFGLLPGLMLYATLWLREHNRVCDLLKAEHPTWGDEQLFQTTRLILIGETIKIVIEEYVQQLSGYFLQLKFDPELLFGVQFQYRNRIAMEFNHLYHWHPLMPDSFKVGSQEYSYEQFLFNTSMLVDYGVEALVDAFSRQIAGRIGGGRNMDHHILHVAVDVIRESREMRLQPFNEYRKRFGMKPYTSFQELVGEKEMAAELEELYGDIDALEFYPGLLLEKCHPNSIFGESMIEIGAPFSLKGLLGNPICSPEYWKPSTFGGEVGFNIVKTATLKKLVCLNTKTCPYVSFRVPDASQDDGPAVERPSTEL

`COc1ccc2c(c1)c(Cc1nc(-c3ccc(Br)cc3)cs1)c(C)n2C(=O)c1ccc(Cl)cc1` [Example 1, 3-[4-(4-bromophenyl)thiazol-2-ylmethyl]-1-(4-Chlorobenzoyl)-5-methoxy-2-methylindole] had an inhibition in vivo at 10 mg/kg in test [1] of 43%. Besides, the inhibition at 100 µM in test [2] stood at 32%. The IC50 in test [3] turned out to be 0.3 nM.

Compound `COc1ccc2c(c1)c(Cc1nc(-c3ccc(F)cc3F)cs1)c(C)n2C(=O)c1ccc(Cl)cc1` [Example 2, 1-(4-Chlorobenzoyl)-3-[4-(2.4-difluorophenyl)thiazol-2-ylmethyl]-5-methoxy-2-methylindole] returned an inhibition in vivo at 10 mg/kg in test [1] of 16%. In test [2], the inhibition at 100 µM was 20%. In addition, the inhibition at 0.1 µM in test [3] was found to be 82%.

As to `COc1ccc2c(c1)c(Cc1nc(-c3ccc4ccccc4c3)cs1)c(C)n2C(=O)c1ccc(Cl)cc1` [Example 3, 1-(4-Chlorobenzoyl)-5-methoxy-2-methyl-3-[4-(2-naphthyl)thiazol-2-ylmethyl]indole], the inhibition at 100 µM in test [2] amounted to 21%. For the same compound, in test [3], the 50% inhibitory concentration (IC50) stood at 7 nM.

Take `COc1ccc2c(c1)c(Cc1nc(-c3cccc(Br)c3)cs1)c(C)n2C(=O)c1ccc(Cl)cc1` [Example 4, 3-[4-(3-bromophenyl)thiazol-2-ylmethyl]-1-(4-Chlorobenzoyl)-5-methoxy-2-methylindole]: the inhibition in vivo at 10 mg/kg in test [1] is 24%. The inhibition at 100 µM in test [2] was found to be 35%. Further, the half-maximal inhibitory concentration (IC50) in test [3] is 8 nM.

For `COc1ccc2c(c1)c(Cc1nc(-c3ccc(Cl)cc3)cs1)c(C)n2C(=O)c1ccc(Cl)cc1` [Example 5, 1-(4-Chlorobenzoyl)-3-[4-(4-Chlorophenyl)thiazol-2-ylmethyl]-5-methoxy-2-methylindole], in test [2], the inhibition at 100 µM is 16%. For the same compound, the half-maximal inhibitory concentration (IC50) in test [3] was 14 nM.

Take `COc1ccc2c(c1)c(Cc1nc(-c3ccc([N+](=O)[O-])cc3)cs1)c(C)n2C(=O)c1ccc(Cl)cc1` [Example 6, 1-(4-Chlorobenzoyl)-5-methoxy-2-methyl-3-[4-(4-nitrophenyl)thiazol-2-ylmethyl]indole]: the inhibition at 100 µM in test [2] was determined as 26%. For the same compound, the IC50 in test [3] is 12 nM.

Compound `COc1ccc2c(c1)c(Cc1nc(-c3csc4ccccc34)cs1)c(C)n2C(=O)c1ccc(Cl)cc1` [Example 7, 3-[4-(3-benzothienyl)thiazol-2-ylmethyl]-1-(4-Chlorobenzoyl)-5-methoxy-2-methylindole] came in with an inhibition in vivo at 10 mg/kg in test [1] of 20%. Besides, the inhibition at 100 µM in test [2] is 23%. The IC50 in test [3] was 1 nM.

`COc1ccc2c(c1)c(Cc1nc(-c3ccc(F)cc3)cs1)c(C)n2C(=O)c1ccc(Cl)cc1` [Example 8, 1-(4-Chlorobenzoyl)-3-[4-(4-fluorophenyl)thiazol-2-ylmethyl]-5-methoxy-2-methylindole]: the inhibition at 100 µM in test [2] turned out to be 36%. Moreover, in test [3], the concentration for half-maximal inhibition (IC50) worked out at 12 nM.

With `COc1ccc2c(c1)c(Cc1nc(-c3ccc(S(C)(=O)=O)cc3)cs1)c(C)n2C(=O)c1ccc(Cl)cc1` [Example 9, 1-(4-Chlorobenzoyl)-3-[4-(4-methanesulfonylphenyl)thiazol-2-ylmethyl]-5-methoxy-2-methylindole hydrobromide salt], the inhibition at 100 µM in test [2] is 40%. Further, in test [3], the IC50 came to 60 nM.

Regarding `COc1ccc2c(c1)c(Cc1nc(-c3cccc([N+](=O)[O-])c3)cs1)c(C)n2C(=O)c1ccc(Cl)cc1` [Example 10, 1-(4-Chlorobenzoyl)-5-methoxy-2-methyl-3-[4-(3-nitrophenyl)thiazol-2-ylmethyl]indole], the inhibition at 100 µM in test [2] stood at 31%. The inhibition at 0.1 µM in test [3] was 85%.

In turn, `COc1ccc2c(c1)c(Cc1nc(-c3ccc(O)c([N+](=O)[O-])c3)cs1)c(C)n2C(=O)c1ccc(Cl)cc1` [Example 11, 1-(4-Chlorobenzoyl)-3-[4-(4-hydroxy-3-nitrophenyl)thiazol-2-ylmethyl]-5-methoxy-2-methylindole] yielded an inhibition in vivo at 10 mg/kg in test [1] of 30%. Besides, the inhibition at 100 µM in test [2] worked out at 23%. The inhibition at 0.1 µM in test [3] stood at 48%.

`COc1ccc2c(c1)c(Cc1csc(-c3cccnc3)n1)c(C)n2C(=O)c1ccc(Cl)cc1` [Example 12, 1-(4-Chlorobenzoyl)-5-methoxy-2-methyl-3-[2-(3-pyridyl)thiazol-4-ylmethyl]indole]: in test [2], the inhibition at 100 µM worked out at 40%. The IC50 in test [3] worked out at 20 nM.

On to `COc1ccc2c(c1)c(Cc1csc(-c3ccncc3)n1)c(C)n2C(=O)c1ccc(Cl)cc1` [Example 13, 1-(4-Chlorobenzoyl)-5-methoxy-2-methyl-3-[2-(4-pyridyl)thiazol-4-ylmethyl]indole], for which the inhibition in vivo at 10 mg/kg in test [1] worked out at 14%. Further, the inhibition at 100 µM in test [2] came to 49%. For the same compound, the inhibition at 0.1 µM in test [3] worked out at 77%.

In turn, `COc1ccc2c(c1)c(Cc1nc(-c3ccc(Cl)cc3)cs1)c(C)n2Cc1ccc(Br)cc1` [Example 14, 1-(4-bromobenzyl)-3-[4-(4-Chlorophenyl)thiazol-2-ylmethyl]-5-methoxy-2-methylindole] returned an inhibition in vivo at 10 mg/kg in test [1] of 36%. Besides, the inhibition at 100 µM in test [2] was 15%. Further, the 50% inhibitory concentration (IC50) in test [3] is 7 nM.

Consider `COc1ccc2c(c1)c(Cc1nc(-c3ccc(Br)cc3)cs1)c(C)n2Cc1ccc(Br)cc1` [Example 15, 1-(4-bromobenzyl)-3-[4-(4-bromophenyl)thiazol-2-ylmethyl]-5-methoxy-2-methylindole], for which the inhibition at 100 µM in test [2] worked out at 15%. Besides, the IC50 in test [3] came out at 30 nM.

As to `COc1ccc2c(c1)c(Cc1nc(-c3ccc([N+](=O)[O-])cc3)cs1)c(C)n2Cc1ccc(Br)cc1` [Example 16, 1-(4-bromobenzyl)-5-methoxy-2-methyl-3-[4-(4-nitrophenyl)thiazol-2-ylmethyl]indole], testing at 10 mg/kg in test [1] gave an inhibition in vivo of 31%. Also, the inhibition at 100 µM in test [2] was determined as 21%. In addition, the IC50 in test [3] was 7 nM.
